Assay results as given in patent US20130116148A1, “LIVER DISEASE MARKER, METHOD AND APPARATUS FOR MEASURING THE SAME, AND METHOD FOR ASSAYING PHARMACEUTICAL PREPARATION” (KEIO UNIVERSITY, priority 2010, published 2013).

Assays:
[1] = system: glutathione; details: mouse, large quantities of APAP, cited from earlier work
[2] = system: glutathione-biosynthesis pathway; test: Administration of GCS inhibitor BSO and GCS activator DEM to mice; metabolites in the livers by CE-TOFMS; assay type: in vivo; details: mouse liver
Description: Male mice were fasted overnight and anesthetized by an intraperitoneal injection of pentobarbital sodium (60 mg/Kg of body weight). Then, the mice were intraperitoneally injected with BSO, which is aγ-glutamyl cysteine synthase (GCS) inhibitor, and diethylmaleate (DEM), which is an electrophile (GCS activator), both at a dose of 4 mmol/kg of body weight (888 mg of BSO, 688 mg of DEM). The mouse as a healthy subject was intraperitoneally injected with physiological saline. Liver specimens (about 300 mg) were excised from the mice 1 hour after administration (5 times each).
The liver specimens (about 300 mg) excised from the mice were immediately placed in 1 ml of methanol containing an internal standard substance and were homogenized to inactivate an enzyme, thereby stopping enhancement of metabolism. After 500 μl of pure water was added to the mixture, 300 μl of solution was taken out. To this solution, 200 μl of chloroform was added. After thorough stirring, the solution was further centrifuged at 15000 rpm for 15 minutes at 4° C. After allowing to stand, 300 μl of separated water-methanol phase was passed through a 5 kDa molecular weight cutoff filter for centrifugal ultrafiltration to deproteinize it. […]
The method described below was used to confirm that the detected γ-Glu-X peptides and γ-Glu-X-Gly peptides were synthesized in a glutathione-biosynthesis pathway.

[3] = system: glutathione-biosynthesis pathway; test: Administration of BSO and DEM to mice; γ-Glu-X and γ-Glu-X-Gly peptides in the murine serum; assay type: in vivo; details: mouse serum, compared to the normal state
Description: Male mice were fasted overnight and anesthetized by an intraperitoneal injection of pentobarbital sodium (60 mg/Kg of body weight). Then, the mice were intraperitoneally injected with BSO, which is aγ-glutamyl cysteine synthase (GCS) inhibitor, and diethylmaleate (DEM), which is an electrophile (GCS activator), both at a dose of 4 mmol/kg of body weight (888 mg of BSO, 688 mg of DEM). The mouse as a healthy subject was intraperitoneally injected with physiological saline. Liver specimens (about 300 mg) were excised from the mice 1 hour after administration (5 times each). On the other hand, regarding the substances in the murine serum, γ-Glu-X peptides and γ-Glu-X-Gly peptides that were decreased by administration of BSO and were increased by administration of an electronic substance, DEM, compared to the normal state were only γ-[…]AB and ophthalmic acid (γ-[…]AB-Gly) (FIG. 22). Therefore, it is expected that, in the case of a mouse, only γ-[…]AB and ophthalmic acid are increased in the blood when glutathione is decreased because of the oxidative stress caused by electrophiles or the like.

SMILES | ophthalmic acid ([1]; in inverse proportion to the glutathione level) | glutathione [1] | amount of glutathione in the livers ([2]; 1 hour after i.p. 4 mmol/kg, compared to the healthy mouse) | γ-Glu-X and γ-Glu-X-Gly peptidic substances in the liver other than γ-Glu-Cys, GSH and γ-Glu-Ser-Gly ([2]; compared to the normal) | γ-Glu-2AB and ophthalmic acid (γ-Glu-2AB-Gly) in the murine serum [3]
CC(=O)Nc1ccc(O)cc1 [APAP, Acetaminophen] | increased rapidly | decreased |  |  | 
CCCCS(=N)(=O)CCC(N)C(=O)O (centres unmarked) [BSO, buthionine sulfoximine] |  |  | decreased rapidly | decreased | decreased
